Measured values from PubChem BioAssay AID1963853 (Molecular Pharmacology Branch, DTP, NCI, 2024).
“And” between values parts separate entries of the source, which are not always exact repeats. Equal values may be shown once.

Test system: 266295-075-R-J1-PDC spheroid viability
Assay: Anticancer human tumor 266295-075-R-J1-PDC patient-derived head and neck squamous carcinoma cell line growth inhibition [POLQ]
Settings: spheroids with HUVEC and MSC; for viability, T/C: stronger effect = lower value
Procedure: Multicellular complex tumor spheroid response to Polymerase (POL) inhibitors (novobiocin, ART-558, RP6685) in combination with a variety of drugs and investigational agents in selected tumor cell lines
The POL inhibitors (novobiocin, ART-558, and RP6685) were evaluated both individually and in combination with standard of care and investigational anticancer small molecules within a complex spheroid model of solid tumors. . Complex spheroids include a stromal component modeled by human endothelial cells (HUVEC) and fibroblasts modeled by human mesenchymal stem cells (MSCs). The concentration ranges selected for each drug and investigational agent were based upon clinically achievable concentrations if the clinical Cmax of the agent was known.
Compounds. The drugs and investigational agents: novobiocin (NSC847541), ART-558 (NSC835418), RP-6685 (NSC848927), peposertib (NSC802822), ceralasertib (NSC780249), elimusertib (NSC800525), camonsertib (NSC841442), AZD-1390 (NSC803789), olaparib (NSC753686), talazoparib (NSC767125), rucaparib (NSC756644), sotorasib (NSC818433), MRTX-1133 (NSC836407), SN-38 (NSC673596), topotecan (NSC609699), epotoside (NSC141540), doxorubicin (NSC123127), gemcitabine (NSC613327), 5-fluorouracil (NSC19893), paclitaxel (NSC125973), vemurafenib (NSC761431), MSA-2 (NSC828583), SN-011 (NSC837082), adavosertib (NSC754352), prexasertib (NSC758257), carboplatin (NSC241240) and oxaliplatin (NSC266046), were obtained from the National Cancer Institute (NCI) Developmental Therapeutics Program Chemical Repository (21). The FDA-approved anticancer drug set is available from the Developmental Therapeutics Program at https://dtp.cancer.gov/organization/dscb/obtaining/. […] The stock solutions were prepared in dimethyl sulfoxide (DMSO, Sigma-Aldrich, St. Louis, MO, cat. D2650), except for the platinum compounds which were prepared in saline (Quality Biological, Gaithersburg, MD, cat. 114-055-101), at 800-fold the tested concentration and stored at -70 degrees C prior to their use. All drugs and investigational agents were tested over a range starting from a high concentration at or near the clinical Cmax and decreasing in half-log increments. If the clinical Cmax for an agent had not been determined, the highest concentration tested was 10 microM, except for SN-38, which was tested at a high concentration of 1 microM.
Cell Culture. All cells were maintained in an incubator at 37 degrees C and 5% CO2 with 95% humidity. The PDC lines were cultured according to standard operating procedures established by the NCI PDMR (https://pdmr.cancer.gov). Table 3 of the manuscript, lists the cell lines along with the number of the three cell types plated to form the mct-spheroids and media for tumor cell growth. After thawing, all PDC lines, except 997537-175-T-J1-PDC and 415267-285-R-J2-PDC, were cultured in Matrigel-coated flasks prepared with a working solution of 1X Ham's F-12 nutrient mix, without supplementation (Thermo Fisher Scientific, cat. 11765054), 100 U/mL penicillin-streptomycin (Thermo Fisher Scientific, cat. 15140122), and 2.5% Matrigel (Corning Inc., Corning, NY, cat. 354248) for the first three passages. The two PDC lines 997537-175-T-J1-PDC and 415267-285-R-J2-PDC were cultured on uncoated flasks. The 857933-349-R-J2-PDC line was cultured in 6C/Colon 1B media containing advanced DMEM/F-12 (Thermo Fisher Scientific, cat. 12634028), 10 mM HEPES (Thermo Fisher Scientific, cat. 15630080), 1X GlutaMAX supplement (Thermo Fisher Scientific, cat. 35050061), 0.1 mg/mL primocin (InvivoGen, San Diego, CA, cat. ant-pm-2), 10% defined fetal bovine serum, heat inactivated (HyClone Laboratories Inc., Logan, UT, cat. SH30070.03HI), 50% L-WRN conditioned media (ATCC, cat. CRL-3276), 1.25 mM N-Acetyl-L-cysteine (Sigma-Aldrich, cat. A9165), 10 mM nicotinamide (Sigma-Aldrich, cat. N0636), 1X B-27 supplement (Thermo Fisher Scientific, cat. 17504044), 1X N-2 supplement (Thermo Fisher Scientific, cat. […]

[1] = curve of first compound, second compound 0.0316 µM
[2] = curve of first compound, second compound 0.1 µM
[3] = curve of first compound, second compound 0.316 µM
[4] = curve of first compound, second compound 1 µM
[5] = curve of first compound, second compound 3.16 µM
[6] = curve of first compound, second compound 10 µM
[7] = second compound 0.0316 µM, first compound 0.0316 µM
[8] = second compound 0.0316 µM, first compound 0.1 µM
[9] = second compound 0.0316 µM, first compound 0.316 µM
[10] = second compound 0.0316 µM, first compound 1 µM
[11] = second compound 0.1 µM, first compound 0.0316 µM
[12] = second compound 0.1 µM, first compound 0.1 µM
[13] = second compound 0.1 µM, first compound 0.316 µM
[14] = second compound 0.1 µM, first compound 1 µM
[15] = second compound 0.316 µM, first compound 0.0316 µM
[16] = second compound 0.316 µM, first compound 0.1 µM
[17] = second compound 0.316 µM, first compound 0.316 µM
[18] = second compound 0.316 µM, first compound 1 µM
[19] = second compound 1 µM, first compound 0.0316 µM
[20] = second compound 1 µM, first compound 0.1 µM
[21] = second compound 1 µM, first compound 0.316 µM
[22] = second compound 1 µM, first compound 1 µM
[23] = second compound 3.16 µM, first compound 0.0316 µM
[24] = second compound 3.16 µM, first compound 0.1 µM
[25] = second compound 3.16 µM, first compound 0.316 µM
[26] = second compound 3.16 µM, first compound 1 µM
[27] = second compound 10 µM, first compound 0.0316 µM
[28] = second compound 10 µM, first compound 0.1 µM
[29] = second compound 10 µM, first compound 0.316 µM
[30] = second compound 10 µM, first compound 1 µM
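Note: spheroids exposed to compounds for seven days before readout.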

Compound: CC1COCCN1c1cc(-c2ccnn2C)c2ccnc(-c3ccn[nH]3)c2n1 (stereo not given) + Cc1cccc(N(C)C(=O)C2C(O)CCN2c2nc(C)cc(C(F)(F)F)c2C#N)c1
- IC50 [1]: 1640 nM
- IC50 [2]: 1320 nM
- IC50 [3]: 1400 nM
- IC50 [4]: 1150 nM
- IC50 [5]: 1870 nM
- IC50 [6]: 1780 nM
- viability, T/C [7]: 93.8%
- viability, T/C [8]: 69.7%
- viability, T/C [9]: 68.4%
- viability, T/C [10]: 56%
- viability, T/C (second compound 0.0316 µM, first compound 3.16 µM): 41%
- viability, T/C (second compound 0.0316 µM, first compound 10 µM): 40%
- viability, T/C [11]: 87.2%
- viability, T/C [12]: 68.4%
- viability, T/C [13]: 60.9%
- viability, T/C [14]: 52.6%
- viability, T/C (second compound 0.1 µM, first compound 3.16 µM): 45.2%
- viability, T/C (second compound 0.1 µM, first compound 10 µM): 40.9%
- viability, T/C [15]: 75.6%
- viability, T/C [16]: 78.2%
- viability, T/C [17]: 68.9%
- viability, T/C [18]: 50.7%
- viability, T/C (second compound 0.316 µM, first compound 3.16 µM): 47.4%
- viability, T/C (second compound 0.316 µM, first compound 10 µM): 36.9%
- viability, T/C [19]: 89%
- viability, T/C [20]: 81.6%
- viability, T/C [21]: 69.4%
- viability, T/C [22]: 48.4%
- viability, T/C (second compound 1 µM, first compound 3.16 µM): 46.3%
- viability, T/C (second compound 1 µM, first compound 10 µM): 38.1%
- viability, T/C [23]: 81.3%
- viability, T/C [24]: 78.4%
- viability, T/C [25]: 66.8%
- viability, T/C [26]: 54.9%
- viability, T/C (second compound 3.16 µM, first compound 3.16 µM): 46.6%
- viability, T/C (second compound 3.16 µM, first compound 10 µM): 36.7%
- viability, T/C [27]: 87.4%
- viability, T/C [28]: 90.1%
- viability, T/C [29]: 69.7%
- viability, T/C [30]: 56.3%
- viability, T/C (second compound 10 µM, first compound 3.16 µM): 46.1%
- viability, T/C (second compound 10 µM, first compound 10 µM): 38%

Compound: CC(=O)O[C@H]1C(=O)[C@@]2(C)[C@H]([C@H](OC(=O)c3ccccc3)[C@]3(O)C[C@H](OC(=O)[C@H](O)[C@@H](NC(=O)c4ccccc4)c4ccccc4)C(C)=C1C3(C)C)[C@]1(OC(C)=O)CO[C@@H]1C[C@@H]2O
- viability, T/C (compound 0.00949 µM): 76.7% and 71.7% and 79%
- viability, T/C (compound 0.03 µM): 72.1% and 64.8% and 76%
- viability, T/C (compound 0.0949 µM): 54.3% and 61.7% and 67.4%
- viability, T/C (compound 0.3 µM): 80.9% and 69.8% and 75%
- viability, T/C (compound 0.949 µM): 73% and 75.7% and 70.2%
- viability, T/C (compound 3 µM): 61.1% and 82% and 77.6%
- IC50 (curve of compound): > 3000 nM

Compound: CCc1c2c(nc3ccc(O)cc13)-c1cc3c(c(=O)n1C2)COC(=O)[C@]3(O)CC + Nc1ccc(C#CCN(C(=O)Cc2ncc(C(F)(F)F)cc2C(F)(F)F)c2ccc(F)cc2)nn1
- IC50 [1]: > 1000 nM
- IC50 [2]: > 1000 nM
- IC50 [3]: > 1000 nM
- IC50 [4]: > 1000 nM
- IC50 [5]: > 1000 nM
- IC50 [6]: > 1000 nM
- viability, T/C (second compound 0.0316 µM, first compound 0.00316 µM): 86.6%
- viability, T/C (second compound 0.0316 µM, first compound 0.01 µM): 96%
- viability, T/C [7]: 84.6%
- viability, T/C [8]: 97.7%
- viability, T/C [9]: 106%
- viability, T/C [10]: 81%
- viability, T/C (second compound 0.1 µM, first compound 0.00316 µM): 103%
- viability, T/C (second compound 0.1 µM, first compound 0.01 µM): 80.7%
- viability, T/C [11]: 76.9%
- viability, T/C [12]: 102%
- viability, T/C [13]: 96.2%
- viability, T/C [14]: 75.4%
- viability, T/C (second compound 0.316 µM, first compound 0.00316 µM): 98.6%
- viability, T/C (second compound 0.316 µM, first compound 0.01 µM): 83.1%
- viability, T/C [15]: 80.2%
- viability, T/C [16]: 101%
- viability, T/C [17]: 117%
- viability, T/C [18]: 73.5%
- viability, T/C (second compound 1 µM, first compound 0.00316 µM): 106%
- viability, T/C (second compound 1 µM, first compound 0.01 µM): 82.7%
- viability, T/C [19]: 81.9%
- viability, T/C [20]: 85.8%
- viability, T/C [21]: 101%
- viability, T/C [22]: 63.4%
- viability, T/C (second compound 3.16 µM, first compound 0.00316 µM): 108%
- viability, T/C (second compound 3.16 µM, first compound 0.01 µM): 96.8%
- viability, T/C [23]: 96.1%
- viability, T/C [24]: 109%
- viability, T/C [25]: 99.5%
- viability, T/C [26]: 65%
- viability, T/C (second compound 10 µM, first compound 0.00316 µM): 100%
- viability, T/C (second compound 10 µM, first compound 0.01 µM): 97.1%
- viability, T/C [27]: 83.2%
- viability, T/C [28]: 81.5%
- viability, T/C [29]: 117%
- viability, T/C [30]: 70.4%

Compound: C#Cc1c(F)ccc2cc(O)cc(-c3ncc4c(N5CC6CCC(C5)N6)nc(OCC56CCCN5CC(F)C6)nc4c3F)c12 (stereo not given)
- viability, T/C (compound 0.0316 µM): 88.8% and 94.8% and 100%
- viability, T/C (compound 0.1 µM): 93.5% and 94.2% and 79.7%
- viability, T/C (compound 0.316 µM): 81.2% and 69.6% and 68.8%
- viability, T/C (compound 1 µM): 76.1% and 83.5% and 63.2%
- viability, T/C (compound 3.16 µM): 66% and 76.4% and 54.8%
- viability, T/C (compound 10 µM): 61.1% and 56.7% and 58%
- IC50 (curve of compound): > 10000 nM

Compound: COc1ccc([C@@H](O)c2cc(-c3ncnc4cc(N5CCOCC5)ccc34)c(F)cc2Cl)nn1
- viability, T/C (compound 0.0316 µM): 96.7% and 96.6% and 100%
- viability, T/C (compound 0.1 µM): 89.4% and 101% and 98%
- viability, T/C (compound 0.316 µM): 84.6% and 83% and 84%
- viability, T/C (compound 1 µM): 60.7% and 73.9% and 67.8%
- viability, T/C (compound 3.16 µM): 44.7% and 71.7% and 51.1%
- viability, T/C (compound 10 µM): 39.7% and 44.2% and 39.9%
- IC50 (curve of compound): 2170 nM and 8030 nM and 3390 nM
